Reference: patent US7157078B2, “Devices and methods for eliminating termite colonies” (The University of Florida Research Foundation, Inc., priority 2001, dated 2007)

The molecules below were run on termites from the genus/specie Reticulitermes flavipes or Coptotermes formosanus (assay: Termiticide activity (Reference Example 3)). Conditions: 0.5% compound on Whatman #1 filter paper, 20 termites per well, triplicate.
Format: in vivo
Experimental: The tests, run in triplicate, are set up in three wells of a 6-well polystyrene microtiter plate (3 wells are empty). Four circles of either 3.2 cm Whatman #1 filter paper (cellulose) for the food controls and tests on compounds, or 3.2 cm Whatman GF/C glass microfibre filters (borosilicate glass) for the no-food controls are stacked in each well. For the food controls, 600 microliters of water are added to each wen. For the no-food controls 1200 microliters of water are added to those wells. If the test compounds are water soluble, they are added to the wells in 600 microliters of water to deliver 0.5% compound. Water insoluble test compounds are added to the wells in a solvent in which they are soluble to deliver 0.5% compound, the solvent is evaporated, and 600 microliters of water added per well.
Termiticidal activity for a compound is measured using termites from the genus/specie Reticulitermes flavipes or Coptotermes formosanus. The termites are added in groups of 20 per well. Every 34 days the termites are counted. The number of days until 50% death (DTD50) and 100% death for termites is determined. These values for termites in the wells containing test compounds are compared to the food and no-food controls to determine which compounds display termiticidal activity.
Various compounds were analyzed by the method of Reference Example 3.
In the case of `COC(=O)C[S+]([O-])c1ccccc1` (stereo not drawn) [CAS No. 14090-83-6], the “DTD50 (number of days until 50% death)” value is reported as 35 days. In the case of `CC(C)(c1ccc(O)cc1)c1ccc(O)cc1` [CAS No. 80-05-7], the “DTD50 (number of days until 50% death)” value is reported as 42 days. For `CC(=O)Oc1ccc(C(C)(C)c2ccc(OC(C)=O)cc2)cc1` [CAS No. 10192-62-8], the “DTD50 (number of days until 50% death)” value was 70 days. `CC(C)(C1CCC(O)CC1)C1CCC(O)CC1` (stereo not drawn) [CAS No. 80-04-6] was tested, and the “DTD50 (number of days until 50% death)” value was 62 days. For `CC(=O)c1ccc(-n2ccnc2)cc1` [CAS No. 10041-06-2], the “DTD50 (number of days until 50% death)” value was 35 days. For `O=C(Nc1ccccc1)c1cccnc1` [CAS No. 1752-96-1], the “DTD50 (number of days until 50% death)” value was 80 days. In the case of `O=[N+]([O-])c1ccc(OC2OC(CO)C(OC3OC(CO)C(OC4OC(CO)C(O)C(O)C4O)C(O)C3O)C(O)C2F)c([N+](=O)[O-])c1` (stereo not drawn) [CAS No. 213193-76-1], the “DTD50 (number of days until 50% death)” value is reported as 60 days. In the case of `NC1CCN(Cc2ccccc2)CC1` [CAS No. 50541-93-0], the “DTD50 (number of days until 50% death)” value is reported as 59 days. For `CC(C)NCC(O)COc1cccc2ccccc12` (stereo not drawn) [CAS No. 4199-10-4], the “DTD50 (number of days until 50% death)” value was 77 days. With `OC[C@H]1O[C@@H](Oc2ccccc2)[C@H](O)[C@@H](O)[C@@H]1O` [CAS No. 1464-44-4, Phenyl-beta-D-glycoside] the “DTD50 (number of days until 50% death)” value was 15 days. For `O=[N+]([O-])c1ccc(OC2OC(CO)C(OC3OC(CO)C(O)C(O)C3O)C(O)C2F)c([N+](=O)[O-])c1` (stereo not drawn) [CAS No. 154862-23-4], the “DTD50 (number of days until 50% death)” value was 66 days. For `COc1ccc(NC(=O)CC(C)=O)cc1` [CAS No. 5437-98-9], the “DTD50 (number of days until 50% death)” value was 31 days. `O=c1c2ccccc2nnn1O` [CAS No. 28230-32-2] was tested, and the “DTD50 (number of days until 50% death)” value was 80 days. In the case of `OCC1OC(OC2C(CO)OC(Oc3ccccc3)C(O)C2O)C(O)C(O)C1O` (stereo not drawn), the “DTD50 (number of days until 50% death)” value is reported as 27 days. In the case of `OCC1OC(O)(C(F)(F)F)C(O)C(O)C1O` (stereo not drawn), the “DTD50 (number of days until 50% death)” value is reported as 41 days. For `Cc1nc2cc(C)c(C)cc2[nH]1` [CAS No. 3363-56-2], the “DTD50 (number of days until 50% death)” value was 63 days. For `CC1(C)CC(O)CC(C)(C)N1O` [CAS No. 2226-96-2], the “DTD50 (number of days until 50% death)” value was 32 days. With `OCC1OC(F)C(F)C(O)C1O` (stereo not drawn) the “DTD50 (number of days until 50% death)” value was 33 days.

Same assay, conditions: at day 73; 0.5% compound on filter paper, 20 termites per well
With `Cc1cc(C(C)(C)c2cc(C)c(O)c(C)c2)cc(C)c1O` [CAS No. 5613-46-7] the “termite death (printed in DTD50 column)” value was 42% atday 73.

Same assay, conditions: by day 53; 0.5% compound on filter paper, 20 termites per well
With `O=S(=O)(NCCc1c[nH]cn1)c1ccccc1` [CAS No. 195052-64-3] the “termite death (printed in DTD50 column)” value was 48%by day53.

Each molecule was assayed on termites (assay: Termiticide preference test (Reference Example 4)). Conditions: 100 termites per dish, about 7 days.
Format: in vivo
Experimental: The test is performed in 100 millimeter Petri dishes into which 20 grams of washed sand and 2 milliliters of water are distributed. Six circles (three plain and thee treated with the compound of interest) of Whatman #1 filter paper (15 millimeters) are used as food. The treated circles are prepared by pipetting a small volume (approximately 25 microliters) of a solution of the compound in an appropriate solvent onto the filter paper circles, and then evaporating the solvent.
The filter paper circles are arranged in the dish in two rows using an alternating pattern of treated and untreated. One hundred termites are then added to the dish. The test is run for about 7 days to determine if any eating preference is seen between the treated and untreated filter paper circles.
`CC(C)(C1CCC(O)CC1)C1CCC(O)CC1` (stereo not drawn) [CAS No. 80-04-6] was tested, and the “preference test result (treated vs untreated filter paper circles)” value was “passes the preference test”.
